One assay deals with T1, BRD3(2) (Homo sapiens, UniProt Q15059).
T1 construct: BRD3(2); purchased Eurofins DiscoverX (BROMOscan)
Kind of assay: BromoScan profiling (DiscoverX). The class given is binding. The conditions noted are these: read-out: Percent Control BRD3(2).

A further assay has as its target T2, SMARCA4 (Homo sapiens, UniProt P51532).
T2 construct: purchased Eurofins DiscoverX (BROMOscan)
Kind of assay: BromoScan profiling (DiscoverX). Type of assay: binding. As to conditions: read-out: Percent Control SMARCA4.

The target in a further assay is T3, SMARCA2 (Homo sapiens, UniProt P51531).
T3 construct: purchased Eurofins DiscoverX (BROMOscan)
Description: BromoScan profiling (DiscoverX). The conditions noted are these: read-out: Percent Control SMARCA2. The class given is binding.

The target of the next assay is T4, FALZ (Homo sapiens, UniProt Q12830).
T4 construct: purchased Eurofins DiscoverX (BROMOscan)
Description: BromoScan profiling (DiscoverX). Type of assay: binding. As to conditions: read-out: Percent Control FALZ.

The target of another assay is T5, WDR9(2) (Homo sapiens, UniProt Q9NSI6).
T5 construct: WDR9(2); purchased Eurofins DiscoverX (BROMOscan)
Description: BromoScan profiling (DiscoverX). The class given is binding. As to conditions: read-out: Percent Control WDR9(2).

The target in the next assay is T6, BAZ2A (Homo sapiens, UniProt Q9UIF9).
T6 construct: purchased Eurofins DiscoverX (BROMOscan)
Description: BromoScan profiling (DiscoverX). Type of assay: binding. The conditions noted are these: read-out: Percent Control BAZ2A.

The next assay deals with T7, ATAD2A (Homo sapiens, UniProt Q6PL18).
T7 construct: purchased Eurofins DiscoverX (BROMOscan)
Kind of assay: BromoScan profiling (DiscoverX). Type of assay: binding. As to conditions: read-out: Percent Control ATAD2A.

The next assay addresses T8, BRD1 (Homo sapiens, UniProt O95696).
T8 construct: purchased Eurofins DiscoverX (BROMOscan)
Description: BromoScan profiling (DiscoverX). Type of assay: binding. The conditions noted are these: read-out: Percent Control BRD1.

A further assay concerns the target T9, TRIM24(PHD,Bromo.) (Homo sapiens, UniProt O15164).
T9 construct: purchased Eurofins DiscoverX (BROMOscan)
Description: BromoScan profiling (DiscoverX). As to conditions: read-out: Percent Control TRIM24(PHD,Bromo.). Type of assay: binding.

Another assay deals with T10, GCN5L2 (Homo sapiens, UniProt Q92830).
T10 construct: purchased Eurofins DiscoverX (BROMOscan)
Kind of assay: BromoScan profiling (DiscoverX). Type of assay: binding. As to conditions: read-out: Percent Control GCN5L2.

Another assay concerns the target T11, BRD9 (Homo sapiens, UniProt Q9H8M2).
T11 construct: purchased Eurofins DiscoverX (BROMOscan)
Description: BromoScan profiling (DiscoverX). Type of assay: binding. As to conditions: read-out: Percent Control BRD9.

Assay [1] concerns c-MYC in HDMB03 (HDMBO3) cells. Description: Western blotting for c-MYC after 6 h treatment. The conditions noted are these: CCS1477 39 nM, A485 400 nM, JQ1 100 nM. The class given is cell-based. The source says: Line width indicates strength of known protein-protein interactions. Red indicates proteins involved in control of mRNA transcription/cell cycle, blue indicates proteins involved in RNA metabolism.
Western blotting protocols were as previously described[16],[69]. Briefly, cells growing in culture were lysed for whole-cell lysates using RIPA buffer, or for affinity pulldown using IP-lysis buffer (Pierce Biotechnology) per the manufacturer’s protocol. […] Equal amounts of protein were resolved by Western blotting using 4% to 12% Bis–Tris NuPAGE gels (Thermo Fisher Scientific) prior to transfer and immunoblotting using primary antibodies to EP300 (1:1000, Abcam ab10485), BRD4 (1:1000, Epicypher 13-2003), c-MYC (1:1000, Cell Signaling Technology #5605) or β-Actin (1:1000, Cell Signaling Technology #4967). Secondary antibodies were horseradish peroxidase–conjugated anti-rabbit or anti-mouse (1:5000, Santa Cruz Biotechnology, sc-2357, sc-358914), incubated prior to exposure to enhanced chemiluminescence reagents (GE Amersham). Densitometry was performed using Image Lab v6.1 (BioRad).

The target in the next assay is T12, PBRM1(5) (Homo sapiens, UniProt Q86U86).
T12 construct: PBRM1(5); purchased Eurofins DiscoverX (BROMOscan)
Description: BromoScan profiling (DiscoverX). The conditions noted are these: read-out: Percent Control PBRM1(5). The class given is binding.

For the next assay, the target named is T13, BRDT(2) (Homo sapiens, UniProt Q58F21).
T13 construct: BRDT(2); purchased Eurofins DiscoverX (BROMOscan)
Kind of assay: BromoScan profiling (DiscoverX). The conditions noted are these: read-out: Percent Control BRDT(2). The class given is binding.

T2 sequence (P51532 whole entry): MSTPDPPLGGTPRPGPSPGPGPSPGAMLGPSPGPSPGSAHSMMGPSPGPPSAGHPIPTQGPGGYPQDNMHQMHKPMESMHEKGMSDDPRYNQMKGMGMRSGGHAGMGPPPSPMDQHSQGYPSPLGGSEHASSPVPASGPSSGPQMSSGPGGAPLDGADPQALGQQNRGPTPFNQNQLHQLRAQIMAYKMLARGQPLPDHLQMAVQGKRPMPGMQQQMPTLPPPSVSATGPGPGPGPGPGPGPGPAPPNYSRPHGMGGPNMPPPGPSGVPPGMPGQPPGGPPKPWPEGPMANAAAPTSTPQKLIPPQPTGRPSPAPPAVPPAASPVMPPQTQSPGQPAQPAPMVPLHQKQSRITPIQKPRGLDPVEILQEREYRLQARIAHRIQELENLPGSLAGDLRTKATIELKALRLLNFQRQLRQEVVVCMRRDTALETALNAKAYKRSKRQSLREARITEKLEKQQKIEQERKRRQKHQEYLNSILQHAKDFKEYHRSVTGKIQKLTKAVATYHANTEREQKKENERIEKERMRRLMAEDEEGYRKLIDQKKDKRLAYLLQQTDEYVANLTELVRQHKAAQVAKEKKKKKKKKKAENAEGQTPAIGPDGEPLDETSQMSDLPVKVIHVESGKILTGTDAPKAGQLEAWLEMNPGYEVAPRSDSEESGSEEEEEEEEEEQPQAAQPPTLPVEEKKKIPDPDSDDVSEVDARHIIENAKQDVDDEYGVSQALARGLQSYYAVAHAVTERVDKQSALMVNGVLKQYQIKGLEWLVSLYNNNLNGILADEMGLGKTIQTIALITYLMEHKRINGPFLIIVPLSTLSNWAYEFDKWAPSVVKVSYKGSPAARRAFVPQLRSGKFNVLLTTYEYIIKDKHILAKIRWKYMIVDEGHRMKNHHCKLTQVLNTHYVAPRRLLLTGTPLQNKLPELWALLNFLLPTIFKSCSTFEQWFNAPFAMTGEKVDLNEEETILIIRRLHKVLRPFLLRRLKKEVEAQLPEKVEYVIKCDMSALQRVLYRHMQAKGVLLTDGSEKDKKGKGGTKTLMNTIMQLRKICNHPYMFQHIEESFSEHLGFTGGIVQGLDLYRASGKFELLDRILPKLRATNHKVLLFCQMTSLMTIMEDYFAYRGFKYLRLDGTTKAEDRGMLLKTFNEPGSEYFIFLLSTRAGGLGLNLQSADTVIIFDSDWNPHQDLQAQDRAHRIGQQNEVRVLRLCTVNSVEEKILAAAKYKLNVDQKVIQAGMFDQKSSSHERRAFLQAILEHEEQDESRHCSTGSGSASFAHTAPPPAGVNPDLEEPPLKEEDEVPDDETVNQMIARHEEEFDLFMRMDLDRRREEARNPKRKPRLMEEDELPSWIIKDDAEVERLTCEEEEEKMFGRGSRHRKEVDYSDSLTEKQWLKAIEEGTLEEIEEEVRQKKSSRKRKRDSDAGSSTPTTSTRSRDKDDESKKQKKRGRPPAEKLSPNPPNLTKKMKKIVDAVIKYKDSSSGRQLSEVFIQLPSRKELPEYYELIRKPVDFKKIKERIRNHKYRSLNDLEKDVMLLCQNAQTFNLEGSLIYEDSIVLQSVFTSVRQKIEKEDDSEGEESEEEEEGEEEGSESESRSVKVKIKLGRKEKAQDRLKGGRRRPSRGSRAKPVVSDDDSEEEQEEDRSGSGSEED
T10 sequence (Q92830 whole entry): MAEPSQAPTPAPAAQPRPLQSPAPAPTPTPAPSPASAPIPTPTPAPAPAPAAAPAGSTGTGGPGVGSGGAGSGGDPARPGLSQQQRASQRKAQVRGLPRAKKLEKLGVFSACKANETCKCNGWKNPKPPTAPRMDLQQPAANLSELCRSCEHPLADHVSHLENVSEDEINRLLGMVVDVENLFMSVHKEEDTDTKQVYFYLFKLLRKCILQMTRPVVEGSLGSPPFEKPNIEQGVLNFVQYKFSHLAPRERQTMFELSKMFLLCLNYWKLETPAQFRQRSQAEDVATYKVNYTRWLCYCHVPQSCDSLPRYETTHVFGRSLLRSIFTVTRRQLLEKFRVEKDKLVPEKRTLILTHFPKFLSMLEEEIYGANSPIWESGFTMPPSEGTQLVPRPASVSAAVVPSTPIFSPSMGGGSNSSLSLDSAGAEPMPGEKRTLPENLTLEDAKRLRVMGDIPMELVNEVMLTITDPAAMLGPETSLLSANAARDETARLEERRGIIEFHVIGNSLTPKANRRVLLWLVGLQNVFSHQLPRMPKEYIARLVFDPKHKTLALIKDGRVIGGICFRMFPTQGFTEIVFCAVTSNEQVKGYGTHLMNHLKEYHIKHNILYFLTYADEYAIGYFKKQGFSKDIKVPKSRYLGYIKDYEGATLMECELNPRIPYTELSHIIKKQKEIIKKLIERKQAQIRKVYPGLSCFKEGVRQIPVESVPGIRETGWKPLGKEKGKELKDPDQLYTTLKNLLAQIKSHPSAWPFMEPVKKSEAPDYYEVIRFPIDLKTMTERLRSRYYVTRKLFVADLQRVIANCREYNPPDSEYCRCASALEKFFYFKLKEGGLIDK
T1 sequence (Q15059 306-416 limits assumed): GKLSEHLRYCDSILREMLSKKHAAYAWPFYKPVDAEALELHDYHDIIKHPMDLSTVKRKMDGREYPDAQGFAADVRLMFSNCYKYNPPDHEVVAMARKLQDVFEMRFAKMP
T11 sequence (Q9H8M2 whole entry): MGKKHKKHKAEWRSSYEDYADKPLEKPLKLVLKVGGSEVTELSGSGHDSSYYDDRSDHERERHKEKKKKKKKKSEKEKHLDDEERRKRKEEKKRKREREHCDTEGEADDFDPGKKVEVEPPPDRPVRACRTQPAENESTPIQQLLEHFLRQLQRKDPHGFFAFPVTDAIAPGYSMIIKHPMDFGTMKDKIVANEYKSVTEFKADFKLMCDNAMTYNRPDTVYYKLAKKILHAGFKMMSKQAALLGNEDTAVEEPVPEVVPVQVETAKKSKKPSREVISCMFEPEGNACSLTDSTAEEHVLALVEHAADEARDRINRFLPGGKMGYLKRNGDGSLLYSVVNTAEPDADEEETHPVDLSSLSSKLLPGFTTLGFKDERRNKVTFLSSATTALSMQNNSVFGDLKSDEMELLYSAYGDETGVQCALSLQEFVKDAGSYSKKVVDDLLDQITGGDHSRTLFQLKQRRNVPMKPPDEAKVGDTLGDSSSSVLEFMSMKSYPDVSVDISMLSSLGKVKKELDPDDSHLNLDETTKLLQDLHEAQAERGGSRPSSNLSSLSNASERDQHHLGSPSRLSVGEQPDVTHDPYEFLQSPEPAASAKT
T9 sequence (O15164 824-1006 limits assumed): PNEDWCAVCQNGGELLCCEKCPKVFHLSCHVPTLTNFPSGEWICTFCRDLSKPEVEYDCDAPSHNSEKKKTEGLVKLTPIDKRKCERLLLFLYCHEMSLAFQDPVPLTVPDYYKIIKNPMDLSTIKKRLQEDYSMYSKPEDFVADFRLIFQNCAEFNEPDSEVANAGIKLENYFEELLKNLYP
T12 sequence (Q86U86 645-766 limits assumed): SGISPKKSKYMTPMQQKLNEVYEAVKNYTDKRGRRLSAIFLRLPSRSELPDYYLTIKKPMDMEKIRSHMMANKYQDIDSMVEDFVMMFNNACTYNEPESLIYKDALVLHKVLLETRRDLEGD
T7 sequence (Q6PL18 whole entry): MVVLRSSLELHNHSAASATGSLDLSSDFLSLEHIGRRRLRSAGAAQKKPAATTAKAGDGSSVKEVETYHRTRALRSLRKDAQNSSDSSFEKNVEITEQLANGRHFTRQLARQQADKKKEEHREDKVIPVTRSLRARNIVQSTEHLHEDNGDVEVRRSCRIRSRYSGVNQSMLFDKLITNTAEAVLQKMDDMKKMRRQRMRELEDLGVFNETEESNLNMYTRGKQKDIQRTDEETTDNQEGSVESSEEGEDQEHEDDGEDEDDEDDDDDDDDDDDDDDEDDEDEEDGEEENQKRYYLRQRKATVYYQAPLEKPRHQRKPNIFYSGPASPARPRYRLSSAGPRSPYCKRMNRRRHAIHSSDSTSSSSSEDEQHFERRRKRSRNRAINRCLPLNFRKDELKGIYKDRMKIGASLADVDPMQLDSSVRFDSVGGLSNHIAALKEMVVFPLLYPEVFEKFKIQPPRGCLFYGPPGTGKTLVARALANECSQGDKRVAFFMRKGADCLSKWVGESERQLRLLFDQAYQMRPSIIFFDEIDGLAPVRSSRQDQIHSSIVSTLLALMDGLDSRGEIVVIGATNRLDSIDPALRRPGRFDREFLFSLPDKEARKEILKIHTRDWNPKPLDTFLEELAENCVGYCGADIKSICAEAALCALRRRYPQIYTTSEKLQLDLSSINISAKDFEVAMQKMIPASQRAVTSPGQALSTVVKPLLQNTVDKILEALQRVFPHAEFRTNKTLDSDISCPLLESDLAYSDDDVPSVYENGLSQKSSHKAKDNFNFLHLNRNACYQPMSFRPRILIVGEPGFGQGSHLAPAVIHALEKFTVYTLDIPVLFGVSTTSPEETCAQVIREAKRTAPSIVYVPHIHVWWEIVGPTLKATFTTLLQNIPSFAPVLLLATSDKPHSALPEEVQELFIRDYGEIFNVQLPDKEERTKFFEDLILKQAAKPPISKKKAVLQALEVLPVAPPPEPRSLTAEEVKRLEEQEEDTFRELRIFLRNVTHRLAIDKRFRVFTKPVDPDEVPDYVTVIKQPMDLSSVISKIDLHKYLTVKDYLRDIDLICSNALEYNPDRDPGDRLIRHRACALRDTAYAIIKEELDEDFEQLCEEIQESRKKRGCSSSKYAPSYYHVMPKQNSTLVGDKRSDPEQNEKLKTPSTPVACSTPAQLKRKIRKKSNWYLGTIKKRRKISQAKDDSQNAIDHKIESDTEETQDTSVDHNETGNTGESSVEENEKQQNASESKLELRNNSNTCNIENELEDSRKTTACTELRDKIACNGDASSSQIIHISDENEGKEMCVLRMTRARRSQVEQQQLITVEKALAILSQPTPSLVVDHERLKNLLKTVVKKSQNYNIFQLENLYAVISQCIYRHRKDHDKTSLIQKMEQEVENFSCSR
T5 sequence (Q9NSI6 1310-1430 limits assumed): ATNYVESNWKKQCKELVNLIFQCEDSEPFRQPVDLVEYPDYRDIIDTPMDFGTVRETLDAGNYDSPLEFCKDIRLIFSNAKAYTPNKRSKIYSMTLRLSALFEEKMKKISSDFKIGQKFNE

As to `CO[C@H]1CC[C@H](n2c([C@@H]3CCCC(=O)N3c3ccc(F)c(F)c3)nc3cc(-c4c(C)noc4C)ccc32)CC1` [CCS1477], the remaining binding at 1 µM was 66% on BRD3(2); 61% at SMARCA4; 50% on SMARCA2; 63% on FALZ; 14% on WDR9(2); 79% at BAZ2A. In addition, the remaining binding at 1 µM was 100% at ATAD2A; 88% at BRD1; 54% on TRIM24(PHD,Bromo.); 100% on GCN5L2; 39% on BRD9; 71% on PBRM1(5). The remaining binding at 1 µM at BRDT(2) was 76%. Besides, the “MYC gene expression and protein levels” value in assay [1] was “loss of MYC gene expression and protein levels”.
